Reference: ChEMBL document CHEMBL1156522, “Lateral compartmentalization of T cell receptor versus CD45 by galectin-N-glycan binding and microfilaments coordinate basal and activation signaling” (J Biol Chem, 2007)
Calls of active or inactive are those of the source. No cut-off for these calls is given here.

How the values were obtained:
[1] = target: Proto-oncogene tyrosine-protein kinase LCK (Mus musculus) (UniProt P06240); experiment: Reduction of Lck Tyr394 phosphorylation in resting C57BL/6 mouse T cells at 20 uM by Western blot; format: cell-based; conditions: T-cell
[2] = target: Proto-oncogene tyrosine-protein kinase LCK (Mus musculus) (UniProt P06240); experiment: Reversal of reduction of Lck Tyr394 phosphorylation in resting C57BL/6 mouse T cells at 20 uM by Western blot; format: cell-based; conditions: T-cell
[3] = target: Tyrosine-protein phosphatase non-receptor type 13 (Homo sapiens, UniProt Q12923); experiment: Inhibition of protein tyrosine phosphatase N13 phosphorylation
[4] = target: T1, Tyrosine-protein phosphatase non-receptor type 1 (Homo sapiens, UniProt P18031); experiment: Inhibition of protein tyrosine phosphatase N1 phosphorylation
T1 sequence (P18031 whole entry): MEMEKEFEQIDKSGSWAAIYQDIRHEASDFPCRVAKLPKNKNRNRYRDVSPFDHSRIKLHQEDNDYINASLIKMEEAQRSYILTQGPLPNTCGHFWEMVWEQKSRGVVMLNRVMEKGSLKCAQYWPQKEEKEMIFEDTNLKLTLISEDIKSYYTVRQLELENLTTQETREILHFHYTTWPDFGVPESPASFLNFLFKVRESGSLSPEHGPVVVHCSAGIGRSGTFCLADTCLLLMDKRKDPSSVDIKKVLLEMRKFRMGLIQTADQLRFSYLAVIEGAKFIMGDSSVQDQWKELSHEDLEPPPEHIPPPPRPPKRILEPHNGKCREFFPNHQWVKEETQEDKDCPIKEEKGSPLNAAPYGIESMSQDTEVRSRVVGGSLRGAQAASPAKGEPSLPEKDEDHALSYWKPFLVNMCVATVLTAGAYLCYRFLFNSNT

[5] = target: T2, Tyrosine-protein kinase Lck (Homo sapiens, UniProt P06239); experiment: Inhibition of Lck phosphorylation
Target sequence in this assay (P06239 whole entry): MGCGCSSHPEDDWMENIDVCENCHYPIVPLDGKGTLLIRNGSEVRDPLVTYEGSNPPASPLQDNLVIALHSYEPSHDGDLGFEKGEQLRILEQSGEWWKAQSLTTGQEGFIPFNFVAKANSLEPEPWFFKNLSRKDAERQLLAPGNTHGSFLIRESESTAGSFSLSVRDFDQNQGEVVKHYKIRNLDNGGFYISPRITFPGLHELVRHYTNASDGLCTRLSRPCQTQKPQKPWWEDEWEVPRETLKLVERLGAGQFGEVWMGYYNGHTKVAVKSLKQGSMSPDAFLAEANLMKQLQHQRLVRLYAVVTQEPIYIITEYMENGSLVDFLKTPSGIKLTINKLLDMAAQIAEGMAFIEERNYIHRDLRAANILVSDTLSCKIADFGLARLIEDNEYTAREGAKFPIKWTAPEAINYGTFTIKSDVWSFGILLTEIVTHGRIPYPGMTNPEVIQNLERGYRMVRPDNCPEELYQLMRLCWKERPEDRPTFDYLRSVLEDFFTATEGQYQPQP

Jurkat [6] = experiment: Reduction of CD45 co-localization with GM1-enriched microdomain in human Jurkat T cells after 3 days; format: functional, cell-based
Jurkat [7] = experiment: Induction of Nck protein binding to TCR complex in human Jurkat T cells by immunoprecipitation; format: cell-based
T-cell [8] = experiment: Effect on CD4 distribution within GM1-enriched microdomain in C57BL/6 mouse Mgat5 expressing T cells pretreated at 20 uM; format: functional, cell-based
T-cell [9] = experiment: Effect on TCR distribution within GM1-enriched microdomain in C57BL/6 mouse Mgat5 expressing T cells pretreated at 20 uM; format: functional, cell-based
T-cell [10] = experiment: Effect on CD45 distribution within GM1-enriched microdomain in C57BL/6 mouse Mgat5 expressing T cells pretreated at 20 uM; format: functional, cell-based
J-RT3-T3-5 [11] = experiment: Increase in CD45 galectin lattice partition to GM1-enriched microdomain TCRbeta deficient human J.RT3-T3.5 cells by densitometry; format: functional
[12] = target: T3, Linker for activation of T-cells family member 1 (Homo sapiens) (UniProt O43561); experiment: Increase in LAT phosphorylation in anti-CD3-coated microbeads-stimulated CD45 deficient human J45.01 cells after 3 days
T3 sequence (whole entry): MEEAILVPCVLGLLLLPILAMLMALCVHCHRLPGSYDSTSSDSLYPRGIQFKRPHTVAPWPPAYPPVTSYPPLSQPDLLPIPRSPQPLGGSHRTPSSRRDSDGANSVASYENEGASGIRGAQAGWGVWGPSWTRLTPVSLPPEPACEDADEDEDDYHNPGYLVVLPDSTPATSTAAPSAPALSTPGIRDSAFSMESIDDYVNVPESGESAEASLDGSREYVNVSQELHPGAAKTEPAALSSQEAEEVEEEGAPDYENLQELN

J-RT3-T3-5 [13] = experiment: Increase in CD4 galectin lattice partition to GM1-enriched microdomain TCRbeta deficient human J.RT3-T3.5 cells by densitometry; format: functional
Jurkat [14] = experiment: Reduction of CD4 surface expression in Lck deficient human Jurkat T cells by flow cytometry; format: functional, cell-based
Jurkat [15] = experiment: Enhancement of Lck localization within GM1-enriched microdomain in human Jurkat T cells by Western blot; format: functional, cell-based
Homo sapiens [16] = species: Homo sapiens; experiment: Increase in ZAP70 expression in GM1-enriched microdomain of Lck defient human JCaM1.6 cells by Western blot; format: functional
[17] = target: T2, Tyrosine-protein kinase Lck; experiment: Induction of Lck Tyr394 phosphorylation in CD4 deficient human Jurkat T D1.1 cells at 5 uM after 3 days by Western blot analysis; format: cell-based
Target sequence in this assay (P06239 2-509 limits assumed): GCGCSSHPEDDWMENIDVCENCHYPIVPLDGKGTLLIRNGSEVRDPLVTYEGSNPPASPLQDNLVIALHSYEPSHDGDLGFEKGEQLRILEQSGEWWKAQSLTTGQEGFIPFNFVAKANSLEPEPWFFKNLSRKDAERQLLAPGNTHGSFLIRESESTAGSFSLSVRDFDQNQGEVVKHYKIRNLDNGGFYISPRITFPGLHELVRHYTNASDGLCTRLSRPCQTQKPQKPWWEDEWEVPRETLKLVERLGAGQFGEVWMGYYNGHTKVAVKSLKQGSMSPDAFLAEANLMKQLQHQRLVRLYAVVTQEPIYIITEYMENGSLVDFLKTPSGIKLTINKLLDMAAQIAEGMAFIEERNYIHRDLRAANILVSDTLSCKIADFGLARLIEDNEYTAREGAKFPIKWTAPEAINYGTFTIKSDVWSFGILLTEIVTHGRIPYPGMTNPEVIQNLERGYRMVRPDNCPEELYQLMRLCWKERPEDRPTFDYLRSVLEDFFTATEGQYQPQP

Jurkat [18] = experiment: Increase in ZAP70 expression in GM1-enriched microdomain of human Jurkat T cells by Western blot; format: functional, cell-based
T-cell [19] = experiment: Reduction of CD45 co-localization with GM1-enriched microdomain in resting C57BL/6 mouse T cells pretreated for 20 mins; format: functional, cell-based
Jurkat [20] = experiment: Increase in CD45 galectin lattice partition to GM1-enriched microdomain in CD4 deficient human Jurkat D1. 1 cells by densitometry; format: functional, cell-based
Jurkat [21] = experiment: Increase in CD45 galectin lattice partition to GM1-enriched microdomain in human Jurkat T cells by densitometry; format: functional, cell-based
[22] = target: T2, Tyrosine-protein kinase Lck; experiment: Induction of Lck Tyr394 phosphorylation in human Jurkat T cells at 5 uM after 3 days by Western blot analysis; format: cell-based
Target sequence in this assay (P06239 2-509 limits assumed): as above

Jurkat [23] = experiment: Increase in TCR-CD3 galectin lattice partition to GM1-enriched microdomain in human Jurkat T cells by densitometry; format: functional, cell-based
Homo sapiens [24] = species: Homo sapiens; experiment: Increase in TCR-CD3 galectin lattice partition to GM1-enriched microdomain in CD45 deficient human J45.01 cells by densitometry; format: functional
J-RT3-T3-5 [25] = experiment: Increase in TCR-CD3 galectin lattice partition to GM1-enriched microdomain TCRbeta deficient human J.RT3-T3.5 cells by densitometry; format: functional
T-cell [26] = experiment: Increase CD4 co-localization to GM1-enriched microdomain in C57BL/6 mouse T cells pretreated for 20 mins; format: functional, cell-based
[27] = target: T3, Linker for activation of T-cells family member 1 (Homo sapiens); experiment: Induction of LAT phosphorylation in human Jurkat T cells at 5 uM after 3 days by Western blot analysis; format: cell-based
Homo sapiens [28] = species: Homo sapiens; experiment: Increase in CD45 galectin lattice partition to GM1-enriched microdomain in CD45 deficient human J45.01 cells by densitometry; format: functional
T-cell [29] = experiment: Increase T cell receptor co-localization to GM1-enriched microdomain in C57BL/6 mouse T cells pretreated for 20 mins; format: functional, cell-based
[30] = target: T2, Tyrosine-protein kinase Lck; experiment: Induction of Lck Tyr394 phosphorylation in TCRbeta deficient human Jurkat T J.RT3-T3.5 cells at 5 uM after 3 days by Western blot analysis; format: cell-based
Target sequence in this assay (P06239 2-509 limits assumed): as above

Jurkat [31] = experiment: Increase in TCR-CD3 galectin lattice partition to GM1-enriched microdomain in CD4 deficient human Jurkat D1. 1 cells by densitometry; format: functional, cell-based
[32] = target: T4, Tyrosine-protein kinase ZAP-70 (Homo sapiens) (UniProt P43403); experiment: Induction of ZAP70 phosphorylation in human Jurkat T cells at 5 uM after 3 days by Western blot analysis; format: cell-based
T4 sequence (whole entry): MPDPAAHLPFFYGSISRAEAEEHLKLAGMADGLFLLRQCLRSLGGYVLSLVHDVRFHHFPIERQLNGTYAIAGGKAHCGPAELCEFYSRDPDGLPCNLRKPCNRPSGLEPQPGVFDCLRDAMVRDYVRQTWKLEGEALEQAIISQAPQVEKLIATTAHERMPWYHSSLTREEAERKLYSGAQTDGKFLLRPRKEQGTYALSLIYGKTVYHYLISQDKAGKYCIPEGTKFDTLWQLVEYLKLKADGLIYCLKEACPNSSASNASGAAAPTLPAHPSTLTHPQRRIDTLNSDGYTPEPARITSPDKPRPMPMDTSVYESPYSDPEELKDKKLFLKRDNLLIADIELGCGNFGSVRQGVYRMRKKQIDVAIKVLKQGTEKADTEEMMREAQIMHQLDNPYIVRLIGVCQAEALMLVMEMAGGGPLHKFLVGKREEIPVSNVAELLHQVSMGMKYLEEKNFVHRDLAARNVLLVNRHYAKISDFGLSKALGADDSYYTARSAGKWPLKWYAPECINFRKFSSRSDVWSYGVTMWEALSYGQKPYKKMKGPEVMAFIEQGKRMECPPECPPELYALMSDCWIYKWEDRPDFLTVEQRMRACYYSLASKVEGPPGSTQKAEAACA

[33] = target: T4, Tyrosine-protein kinase ZAP-70 (Homo sapiens); experiment: Increase in Zap70 phosphorylation in anti-CD3-coated microbeads-stimulated CD45 deficient human J45.01 cells after 3 days
Homo sapiens [34] = species: Homo sapiens; experiment: Enhancement of Lck localization within GM1-enriched microdomain in CD45 deficient human J45.01 cells by Western blot; format: functional
J-RT3-T3-5 [35] = experiment: Enhancement of Lck localization within GM1-enriched microdomain in TCRbeta deficient human J.RT3-T3.5 cells by Western blot; format: functional
Jurkat [36] = experiment: Enhancement of Lck localization within GM1-enriched microdomain in CD4 deficient human Jurkat D1. 1 cells by Western blot; format: functional, cell-based
Homo sapiens [37] = species: Homo sapiens; experiment: Increase in CD4 galectin lattice partition to GM1-enriched microdomain in CD45 deficient human J45.01 cells by densitometry; format: functional
Jurkat [38] = experiment: Increase in CD4 galectin lattice partition to GM1-enriched microdomain in human Jurkat T cells by densitometry; format: functional, cell-based
[39] = target: T2, Tyrosine-protein kinase Lck; experiment: Induction of Lck Tyr394 phosphorylation in CD45 deficient human Jurkat T DJ45.01 cells at 5 uM after 3 days by Western blot analysis; format: cell-based
Target sequence in this assay (P06239 2-509 limits assumed): as the sequence (P06239 2-509 limits assumed) above

Proto-oncogene tyrosine-protein kinase LCK (Mus musculus), sequence (P06240 2-509 limits assumed): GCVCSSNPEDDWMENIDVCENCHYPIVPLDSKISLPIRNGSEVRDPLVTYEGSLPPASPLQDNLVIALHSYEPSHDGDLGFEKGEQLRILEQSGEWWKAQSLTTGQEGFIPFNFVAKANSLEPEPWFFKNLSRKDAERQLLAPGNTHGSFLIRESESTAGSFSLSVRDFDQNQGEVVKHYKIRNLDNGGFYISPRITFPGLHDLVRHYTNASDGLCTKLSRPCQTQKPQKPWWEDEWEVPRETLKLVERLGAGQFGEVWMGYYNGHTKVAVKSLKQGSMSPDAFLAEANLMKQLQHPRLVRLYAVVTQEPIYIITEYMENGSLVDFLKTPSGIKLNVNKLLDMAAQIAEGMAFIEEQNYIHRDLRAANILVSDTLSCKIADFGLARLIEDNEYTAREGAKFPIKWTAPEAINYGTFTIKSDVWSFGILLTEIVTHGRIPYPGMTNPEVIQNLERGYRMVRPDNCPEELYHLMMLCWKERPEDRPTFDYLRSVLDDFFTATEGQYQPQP
Tyrosine-protein phosphatase non-receptor type 13, sequence (Q12923 whole entry): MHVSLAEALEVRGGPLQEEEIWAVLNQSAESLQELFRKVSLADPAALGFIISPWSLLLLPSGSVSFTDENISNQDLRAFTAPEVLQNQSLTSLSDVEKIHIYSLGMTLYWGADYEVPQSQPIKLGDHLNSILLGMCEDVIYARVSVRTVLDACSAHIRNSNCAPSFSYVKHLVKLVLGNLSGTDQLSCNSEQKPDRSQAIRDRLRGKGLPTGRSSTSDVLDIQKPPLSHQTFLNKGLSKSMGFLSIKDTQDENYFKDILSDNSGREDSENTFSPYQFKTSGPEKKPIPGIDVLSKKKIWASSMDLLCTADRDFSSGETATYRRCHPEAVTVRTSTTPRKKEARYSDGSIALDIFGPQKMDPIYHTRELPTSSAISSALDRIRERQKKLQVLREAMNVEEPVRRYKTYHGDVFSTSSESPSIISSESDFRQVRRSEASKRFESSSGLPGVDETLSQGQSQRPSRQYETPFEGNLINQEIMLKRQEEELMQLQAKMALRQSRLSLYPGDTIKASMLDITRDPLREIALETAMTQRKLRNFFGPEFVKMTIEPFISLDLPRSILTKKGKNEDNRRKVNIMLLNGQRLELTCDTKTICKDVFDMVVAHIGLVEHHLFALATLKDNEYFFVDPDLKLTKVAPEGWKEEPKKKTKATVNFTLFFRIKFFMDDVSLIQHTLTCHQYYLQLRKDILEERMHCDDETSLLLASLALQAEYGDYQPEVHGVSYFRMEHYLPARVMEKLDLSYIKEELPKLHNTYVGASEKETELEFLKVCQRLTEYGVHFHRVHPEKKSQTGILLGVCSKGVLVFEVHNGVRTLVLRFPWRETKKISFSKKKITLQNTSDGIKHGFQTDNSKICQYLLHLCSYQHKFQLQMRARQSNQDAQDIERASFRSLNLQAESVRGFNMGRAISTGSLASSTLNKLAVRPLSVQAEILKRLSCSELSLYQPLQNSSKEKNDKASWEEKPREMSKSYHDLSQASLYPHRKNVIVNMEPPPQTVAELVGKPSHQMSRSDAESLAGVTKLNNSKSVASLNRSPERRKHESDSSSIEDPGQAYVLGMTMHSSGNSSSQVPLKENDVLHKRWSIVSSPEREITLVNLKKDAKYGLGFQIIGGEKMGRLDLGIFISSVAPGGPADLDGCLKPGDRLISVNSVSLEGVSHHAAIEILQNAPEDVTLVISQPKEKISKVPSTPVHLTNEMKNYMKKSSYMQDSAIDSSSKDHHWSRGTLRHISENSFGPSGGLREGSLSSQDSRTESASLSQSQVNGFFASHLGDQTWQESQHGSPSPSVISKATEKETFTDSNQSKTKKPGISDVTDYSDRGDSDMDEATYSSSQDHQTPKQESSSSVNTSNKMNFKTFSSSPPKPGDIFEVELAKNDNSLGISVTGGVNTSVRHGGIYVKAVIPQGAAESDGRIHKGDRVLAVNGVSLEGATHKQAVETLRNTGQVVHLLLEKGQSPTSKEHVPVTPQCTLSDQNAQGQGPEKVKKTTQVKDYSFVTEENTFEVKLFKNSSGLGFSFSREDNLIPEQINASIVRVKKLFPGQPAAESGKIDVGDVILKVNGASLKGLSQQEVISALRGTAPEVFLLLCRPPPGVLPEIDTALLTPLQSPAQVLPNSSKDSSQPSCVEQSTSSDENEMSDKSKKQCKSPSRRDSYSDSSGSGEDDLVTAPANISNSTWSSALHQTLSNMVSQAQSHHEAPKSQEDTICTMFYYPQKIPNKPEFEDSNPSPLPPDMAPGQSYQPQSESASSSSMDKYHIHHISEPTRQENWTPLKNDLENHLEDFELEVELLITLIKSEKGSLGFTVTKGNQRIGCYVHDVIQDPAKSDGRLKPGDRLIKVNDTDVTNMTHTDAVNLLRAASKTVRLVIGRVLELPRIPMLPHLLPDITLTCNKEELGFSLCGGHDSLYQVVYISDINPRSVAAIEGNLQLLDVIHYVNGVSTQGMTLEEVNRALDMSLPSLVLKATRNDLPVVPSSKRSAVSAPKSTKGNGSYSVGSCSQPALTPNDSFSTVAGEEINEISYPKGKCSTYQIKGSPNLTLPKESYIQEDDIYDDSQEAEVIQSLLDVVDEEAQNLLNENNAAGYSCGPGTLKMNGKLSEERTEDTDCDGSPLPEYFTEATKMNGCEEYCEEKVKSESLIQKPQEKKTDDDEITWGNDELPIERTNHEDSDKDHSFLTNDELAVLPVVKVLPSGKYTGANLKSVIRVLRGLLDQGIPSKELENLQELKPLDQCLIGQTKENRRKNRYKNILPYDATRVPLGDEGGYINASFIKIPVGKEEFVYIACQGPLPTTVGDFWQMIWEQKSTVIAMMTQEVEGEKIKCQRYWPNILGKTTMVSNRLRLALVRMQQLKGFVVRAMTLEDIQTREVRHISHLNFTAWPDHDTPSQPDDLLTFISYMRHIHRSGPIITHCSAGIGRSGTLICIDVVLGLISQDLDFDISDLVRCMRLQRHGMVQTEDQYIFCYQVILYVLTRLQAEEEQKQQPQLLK

With C/C1=C/C(=O)O[C@@H]2C[C@@H](CC[C@H](C)/C=C\C=C\CC1)O[C@@](O)([C@@H]1CSC(=O)N1)C2 the Activity [1] was “Active” and the Activity [2] was “Active”.
CC(C)(C)C(=O)Nc1ccc2c(c1)C(=O)C(=O)c1ccccc1-2 showed an IC50 [3] of over 30 µM, an IC50 [4] of over 30 µM and an IC50 [5] of 3.8 µM.
In the case of LACTOSE, ANHYDROUS, the Activity (Jurkat [6]) is reported as “Active” and the Activity (Jurkat [7]) is reported as “Active”.
In the case of CC(C)(C)n1nc(-c2ccc(Cl)cc2)c2c(N)ncnc21, the Activity (T-cell [8]) is reported as “inactive”, the Activity (T-cell [9]) is reported as “inactive” and the Activity (T-cell [10]) is reported as “inactive”.
O[C@H]1[C@H]2[C@H](O)CCCN2C[C@H]1O was tested, and the Activity (J-RT3-T3-5 [11]) was “Active”, the Activity [12] was “inactive” and the Activity (J-RT3-T3-5 [13]) was “Active”. For the same molecule, the Activity (Jurkat [14]) was “Active”, the Activity (Jurkat [15]) was “Active” and the Activity (Homo sapiens [16]) was “inactive”. The Activity [17] was “inactive”, the Activity (Jurkat [18]) was “Active” and the Activity (T-cell [19]) was “Active”. The Activity (Jurkat [20]) was “Active”, the Activity (Jurkat [21]) was “Active” and the Activity [22] was “Active”. The Activity (Jurkat [23]) was “Active”, the Activity (Homo sapiens [24]) was “Active” and the Activity (J-RT3-T3-5 [25]) was “Active”. For the same molecule, the Activity (T-cell [26]) was “Active”, the Activity [27] was “Active” and the Activity (Homo sapiens [28]) was “Active”. The Activity (T-cell [29]) was “Active”, the Activity [30] was “inactive” and the Activity (Jurkat [31]) was “Active”. The Activity [32] was “Active”, the Activity [33] was “inactive” and the Activity (Jurkat [7]) was “Active”. For the same molecule, the Activity (Homo sapiens [34]) was “Active”, the Activity (J-RT3-T3-5 [35]) was “inactive” and the Activity (Jurkat [36]) was “Active”. For the same molecule, the Activity (Homo sapiens [37]) was “inactive”, the Activity (Jurkat [38]) was “Active” and the Activity [39] was “inactive”.
